Data reported in patent publication US20230085307A1, “PYRIDAZINONE COMPOUND AND HERBICIDE” (NISSAN CHEMICAL CORPORATION, priority 2019, published 2023).

How the values were obtained:
[1] = system: velvetleaf; experiment: Test Example 5: herbicidal effect by foliage application, plastic box (Table 20, symbol M); format: in vivo, velvetleaf (Abutilon theophrasti); conditions: foliage application, 320 g/ha, 3 weeks after application
How it was run: (§1)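 Plants were sown into sterilized diluvial soil under about 1.5 cm cover and kept in a greenhouse at 25° C. to 30° C. Fourteen days on, foliage received an even spray of the diluted emulsion. Herbicidal or crop effect was judged three weeks afterwards.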

[2] = system: Italian ryegrass; experiment: Test Example 4: herbicidal effect by soil treatment (Table 19, symbol K); format: in vivo, Italian ryegrass (Lolium multiflorum); conditions: AAH 320 g/ha
How it was run: (§2)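 In this soil treatment, the formulated compound reached the seeds only through the soil: seeds were buried about 1.5 cm deep in sterilized diluvial soil, then the diluted emulsion was sprayed over the surface. After three weeks at 25° C. to 30° C. in a greenhouse, effects were graded on criteria from an earlier test.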

[3] = system: blackgrass; experiment: Test Example 5: herbicidal effect by foliage application, plastic box (Table 20, symbol J); format: in vivo, blackgrass (Alopecurus myosuroides); conditions: foliage application, 320 g/ha, 3 weeks after application
How it was run: as §1

[4] = system: wild oat; experiment: Test Example 4: herbicidal effect by soil treatment (Table 19, symbol I); format: in vivo, wild oat (Avena fatua); conditions: AAH 320 g/ha
How it was run: as §2

[5] = system: barnyard grass; experiment: Test Example 4: herbicidal effect by soil treatment (Table 19, symbol H); format: in vivo, barnyard grass (Echinochloa crus-galli); conditions: AAH 320 g/ha
How it was run: as §2

[6] = system: Chinese sprangletop; experiment: Test Example 3: herbicidal effect by foliage application, Wagner pot (Table 18, symbol D); format: in vivo, chinese sprangletop (Leptochloa chinensis); conditions: 320 g/ha
How it was run: (§3)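 Plants were sown in alluvial soil held under 0.1–0.5 cm standing water and grown 14 days in a greenhouse at 25–30 °C. An emulsifiable formulation, water-diluted to the set dose, was then sprayed onto the foliage, and effects were scored three weeks later using previously defined criteria.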

[7] = system: green foxtail; experiment: Test Example 4: herbicidal effect by soil treatment (Table 19, symbol G); format: in vivo, green foxtail (Setaria viridis); conditions: AAH 320 g/ha
How it was run: as §2

[8] = system: wild oat; experiment: Test Example 5: herbicidal effect by foliage application, plastic box (Table 20, symbol I); format: in vivo, wild oat (Avena fatua); conditions: foliage application, 320 g/ha, 3 weeks after application
How it was run: as §1

[9] = system: redroot pigweed; experiment: Test Example 4: herbicidal effect by soil treatment (Table 19, symbol N); format: in vivo, redroot pigweed (Amaranthus retroflexus); conditions: AAH 320 g/ha
How it was run: as §2

[10] = system: lambsquarters; experiment: Test Example 4: herbicidal effect by soil treatment (Table 19, symbol O); format: in vivo, lambsquarters (Chenopodium album); conditions: AAH 320 g/ha
How it was run: as §2

[11] = system: windgrass; experiment: Test Example 4: herbicidal effect by soil treatment (Table 19, symbol L); format: in vivo, windgrass (Apera spica-venti); conditions: AAH 320 g/ha
How it was run: as §2

[12] = system: rice flat sedge; experiment: Test Example 3: herbicidal effect by foliage application, Wagner pot (Table 18, symbol E); format: in vivo, rice flat sedge (Cyperus iria); conditions: 320 g/ha
How it was run: as §3

[13] = system: false cleavers; experiment: Test Example 4: herbicidal effect by soil treatment (Table 19, symbol Q); format: in vivo, false cleavers (Galium spurium); conditions: AAH 320 g/ha
How it was run: as §2

[14] = system: green foxtail; experiment: Test Example 5: herbicidal effect by foliage application, plastic box (Table 20, symbol G); format: in vivo, green foxtail (Setaria viridis); conditions: foliage application, 320 g/ha, 3 weeks after application
How it was run: as §1

[15] = system: persian speedwell; experiment: Test Example 4: herbicidal effect by soil treatment (Table 19, symbol R); format: in vivo, Persian speedwell (Veronica persica); conditions: AAH 320 g/ha
How it was run: as §2

[16] = system: lambsquarters; experiment: Test Example 5: herbicidal effect by foliage application, plastic box (Table 20, symbol O); format: in vivo, lambsquarters (Chenopodium album); conditions: foliage application, 320 g/ha, 3 weeks after application
How it was run: as §1

[17] = system: velvetleaf; experiment: Test Example 4: herbicidal effect by soil treatment (Table 19, symbol M); format: in vivo, velvetleaf (Abutilon theophrasti); conditions: AAH 320 g/ha
How it was run: as §2

[18] = system: barnyard grass; experiment: Test Example 5: herbicidal effect by foliage application, plastic box (Table 20, symbol H); format: in vivo, barnyard grass (Echinochloa crus-galli); conditions: foliage application, 320 g/ha, 3 weeks after application
How it was run: as §1

[19] = system: barnyard grass; experiment: Test Example 3: herbicidal effect by foliage application, Wagner pot (Table 18, symbol H); format: in vivo, barnyard grass (Echinochloa crus-galli); conditions: 320 g/ha
How it was run: as §3

[20] = system: southern crabgrass; experiment: Test Example 5: herbicidal effect by foliage application, plastic box (Table 20, symbol F); format: in vivo, southern crabgrass (Digitaria ciliaris); conditions: foliage application, 320 g/ha, 3 weeks after application
How it was run: as §1

[21] = system: southern crabgrass; experiment: Test Example 4: herbicidal effect by soil treatment (Table 19, symbol F); format: in vivo, southern crabgrass (Digitaria ciliaris); conditions: AAH 320 g/ha
How it was run: as §2

[22] = system: blackgrass; experiment: Test Example 4: herbicidal effect by soil treatment (Table 19, symbol J); format: in vivo, blackgrass (Alopecurus myosuroides); conditions: AAH 320 g/ha
How it was run: as §2

[23] = system: chickweed; experiment: Test Example 4: herbicidal effect by soil treatment (Table 19, symbol P); format: in vivo, common chickweed (Stellaria media); conditions: AAH 320 g/ha
How it was run: as §2

[24] = system: Italian ryegrass; experiment: Test Example 5: herbicidal effect by foliage application, plastic box (Table 20, symbol K); format: in vivo, Italian ryegrass (Lolium multiflorum); conditions: foliage application, 320 g/ha, 3 weeks after application
How it was run: as §1

[25] = system: persian speedwell; experiment: Test Example 5: herbicidal effect by foliage application, plastic box (Table 20, symbol R); format: in vivo, Persian speedwell (Veronica persica); conditions: foliage application, 320 g/ha, 3 weeks after application
How it was run: as §1

Q: Which results are given for COCCOCc1ccc(-c2sc3ccccc3c2-c2c(O)c(C)nn(C)c2=O)cc1 [1-255]?
A: effect on velvetleaf (M) [1]: 5 (Herbicidal rate of 90% or more (almost completely withered)); K: Italian ryegrass, herbicidal effect rating [2]: 4 (Herbicidal rate of 70% or more and less than 90%); effect on blackgrass (J) [3]: 4 (Herbicidal rate of 70% or more and less than 90%); I: wild oat, herbicidal effect rating [4]: 0 (Herbicidal rate of 5% or less (almost no effect)); H: barnyard grass, herbicidal effect rating [5]: 5 (Herbicidal rate of 90% or more (almost completely withered)); herbicidal effect on D (Chinese sprangletop), rating 0-5 [6]: 3 (Herbicidal rate of 40% or more and less than 70%); G: green foxtail, herbicidal effect rating [7]: 4 (Herbicidal rate of 70% or more and less than 90%); effect on wild oat (I) [8]: 0 (Herbicidal rate of 5% or less (almost no effect)); N: redroot pigweed, herbicidal effect rating [9]: 5 (Herbicidal rate of 90% or more (almost completely withered)); O: lambsquarters, herbicidal effect rating [10]: 5 (Herbicidal rate of 90% or more (almost completely withered)); L: windgrass, herbicidal effect rating [11]: 0 (Herbicidal rate of 5% or less (almost no effect)); herbicidal effect on E (rice flat sedge), rating 0-5 [12]: 5 (Herbicidal rate of 90% or more (almost completely withered)); Q: false cleavers, herbicidal effect rating [13]: 0 (Herbicidal rate of 5% or less (almost no effect)); effect on green foxtail (G) [14]: 5 (Herbicidal rate of 90% or more (almost completely withered)); R: persian speedwell, herbicidal effect rating [15]: 5 (Herbicidal rate of 90% or more (almost completely withered)); effect on lambsquarters (O) [16]: 5 (Herbicidal rate of 90% or more (almost completely withered)); M: velvetleaf, herbicidal effect rating [17]: 4 (Herbicidal rate of 70% or more and less than 90%); effect on barnyard grass (H) [18]: 5 (Herbicidal rate of 90% or more (almost completely withered)); herbicidal effect on H (barnyard grass), rating 0-5 [19]: 5 (Herbicidal rate of 90% or more (almost completely withered)); effect on southern crabgrass (F) [20]: 4 (Herbicidal rate of 70% or more and less than 90%); F: southern crabgrass, herbicidal effect rating [21]: 3 (Herbicidal rate of 40% or more and less than 70%); J: blackgrass, herbicidal effect rating [22]: 2 (Herbicidal rate of 20% or more and less than 40%); P: chickweed, herbicidal effect rating [23]: 4 (Herbicidal rate of 70% or more and less than 90%); effect on Italian ryegrass (K) [24]: 5 (Herbicidal rate of 90% or more (almost completely withered)); effect on persian speedwell (R) [25]: 5 (Herbicidal rate of 90% or more (almost completely withered))
